In article PMC2725296, “Interrogating and Predicting Tolerated Sequence Diversity in Protein Folds: Application to E. elaterium Trypsin Inhibitor-II Cystine-Knot Miniprotein” (PLoS Computational Biology, 2009):
pKd: −log10 of the molar value. No end group written: not given here.

How the values were obtained:
trypsin [1] = assay: trypsin binding of individual yeast-displayed EETI loop 3 clones by dual-color flow cytometry; settings: triplicate; for trypsin binding level as percentage of EETIwt / trypsin binding level relative to EETIwt (fold higher): adjusted for expression (cMyc), normalized to EETIwt; for statistical significance of trypsin binding level over the highest-binding randomly-generated clone: single-factor ANOVA (p<0.02), 25 nM trypsin; for trypsin binding level relative to EETIwt (fold higher): single-factor ANOVA p<0.05 vs EETIwt
Text: In addition, we also constructed twenty-five clones where EETI loop 3 was replaced by a randomly-generated nine-amino acid sequence (Table S2). Plasmids containing DNA encoding for predicted and randomly-generated clones were transformed into yeast and induced for expression on the yeast cell surface as described above. Next, we analyzed the predicted and randomly-generated EETI loop 3 clones by dual-color flow cytometry for yeast cell surface expression and binding to fluorescent trypsin, indicating retention of the knottin fold (Figure 8). […] Overall, the least-similar predicted clones also bound trypsin, but not as well as the motif-filtered clones, as expected. The small differences in trypsin binding levels of six of the least-similar predicted clones as compared to EETIwt were deemed statistically insignificant, based on single-factor ANOVA (p<0.05). […] Even the best randomly-generated clone only bound trypsin at 16% of the wild-type EETI trypsin binding level. The successful prediction of nine-amino acid sequences that can be substituted into EETI loop 3 without disrupting the knottin fold highlights the potential of this combinatorial approach for rational protein engineering applications.
Figure 8 Trypsin-binding levels of EETI loop 3 predicted and randomly-generated clones. […] Predicted clones are preceded with a ‘p’ while randomly-generated clones are preceded with an ‘r.’ Protein expression levels were quantified by immunofluorescence staining of the cMyc epitope tag. Retention of the knottin fold was determined by binding of fluorescently-labeled trypsin (25 nM). Trypsin binding levels were adjusted to account for differences in protein expression levels and then normalized to the trypsin-binding level of EETIwt. Trypsin-binding experiments were performed in triplicate and error bars denote standard deviations.
YPD media contained 20 g/L dextrose, 20 g/L peptone, and 10 g/L yeast extract. Selective SD-CAA media contained 20 g/L dextrose, 6.7 g/L yeast nitrogen base without amino acids, 5.4 g/L Na2HPO4, 8.6 g/L NaH2PO4⋅H2O, and 5 g/L Bacto casamino acids. Selective SD-CAA plates were of the same composition as the liquid media except with the addition of 182 g/L sorbitol and 15 g/L agar. SG-CAA media was identical to the SD-CAA media except dextrose was replaced with galactose. PBSA was composed of phosphate buffered saline containing 1 g/L bovine serum albumin. Lyophilized trypsin was purchased from Sigma Aldrich and fluorescently labeled with Alexa Fluor 488 tetrafluorophenyl ester (Invitrogen). Mouse anti-cMyc antibody was purchased from Covance and goat anti-mouse antibody conjugated to R-phycoerythrin was purchased from Sigma Aldrich.
Four rounds of FACS were performed on each EETI loop-substituted library to obtain an enriched pool of trypsin-binding clones. Libraries of yeast clones induced for protein expression were suspended in PBSA with mouse anti-cMyc monoclonal antibody (1∶50 dilution) and incubated for 1 h at room temperature. Yeast were pelleted by centrifugation at 4,000 rpm for 5 min, the supernatant was aspirated, and cells were washed with ice-cold PBSA. Washed yeast libraries were resuspended in PBSA with goat anti-mouse R-phycoerythrin secondary antibody (1∶25 dilution) and Alexa 488-labeled trypsin and incubated on ice in the dark for 30 min. […] Collected library clones were propagated in SD-CAA media with penicillin-streptomycin (400 µg/mL), induced for protein expression in SG-CAA media and subjected to three additional rounds of sorting. For the first round of sorting, approximately 2×10^7 yeast were sorted from each library, and at least 10 times the number of collected yeast were sorted in each subsequent round to decrease the probability of losing unique clones. Sort stringency was increased by gradually decreasing the concentration of Alexa488-labeled trypsin from 200 nM in the first round to 25 nM in the fourth round. […]

trypsin [2] = assay: equilibrium binding of fluorescently-labeled trypsin to yeast-displayed EETIwt (flow cytometry); settings: data not shown
Text: We measured cell surface expression levels of the EETIwt fusion protein by flow cytometry, after staining yeast cells with a primary antibody against a C-terminal cMyc epitope tag followed by the addition of a fluorescently-labeled secondary antibody. […] (Figure 2).
Figure 2 Yeast surface display of EETI knottins and isolation of properly folded EETI loop-substituted clones. […] Density plots depict protein expression (x-axis) versus trypsin binding (y-axis) for enriched pools of loop-substituted clones after four rounds of sorting. […] (C) The progression of enrichment for properly folded EETI loop-substituted variants was monitored by flow cytometry and quantified by trypsin binding levels (at 25 nM), normalized for differences in protein expression levels. Unsorted libraries (white), libraries after two rounds of sorting (light grey), and libraries after four rounds of sorting (dark grey), as compared to EETIwt (striped). Trypsin-binding experiments were performed in triplicate and error bars denote standard deviations.
YPD media contained 20 g/L dextrose, 20 g/L peptone, and 10 g/L yeast extract. Selective SD-CAA media contained 20 g/L dextrose, 6.7 g/L yeast nitrogen base without amino acids, 5.4 g/L Na2HPO4, 8.6 g/L NaH2PO4⋅H2O, and 5 g/L Bacto casamino acids. […]

[3] = 25 nM fluorescently-labeled trypsin

NTTNNSPGY (disulfide (positions not given here)) [p25, least-similar predicted EETI loop 3 clone, …]
trypsin binding level as percentage of EETIwt (trypsin [1]; [3]): approximately 30% | statistical significance of trypsin binding level over the highest-binding randomly-generated clone (trypsin [1]): statistically significant over the highest-binding randomly-generated clone

RRNRKTLGY (disulfide) [p9, motif-filtered predicted EETI loop 3 clone, …]
trypsin binding level relative to EETIwt (fold higher) (trypsin [1]; [3]): roughly 1.5 -fold

Ecballium elaterium trypsin inhibitor II [EETIwt]
pKd (trypsin [2]; Alexa Fluor 488-labeled trypsin, read-out: approximate equilibrium binding constant): ~7.60 | trypsin binding specificity, in words (trypsin [2]; fluorescently-labeled trypsin): bound specifically

NNTNTGRGY (disulfide (positions not given here)) [p20, least-similar predicted EETI loop 3 clone, …]
trypsin binding level as percentage of EETIwt (trypsin [1]; [3]): approximately 30% | statistical significance of trypsin binding level over the highest-binding randomly-generated clone (trypsin [1]): statistically significant over the highest-binding randomly-generated clone

NRNRRRTGY (disulfide (positions not given here)) [p1, motif-filtered predicted EETI loop 3 clone, …]
trypsin binding level relative to EETIwt (fold higher) (trypsin [1]; [3]): roughly 1.5 -fold

NRNRKTPGY (disulfide (positions not given here)) [p3, motif-filtered predicted EETI loop 3 clone, …]
trypsin binding level as percentage of EETIwt (trypsin [1]; [3]): approximately 70%

potato carboxypeptidase inhibitor: a knottin that does not bind trypsin; negative control (QQHADPICNKPCKTHDDCSGAWFCQACWNSARTCGPYVG; ends and bridges not checked; cysteine pairing not given here; UniProt P01075 1-39, looked up) [reference compound]
trypsin binding level as percentage of EETIwt (trypsin [1]; [3]): < 5% | trypsin binding, in words (trypsin [1]; 25 nM fluorescently-labeled trypsin, yeast surface display): does not bind trypsin
